Experimental data reported in US9301528B2 (Rohm and Haas Company, priority 2012, dated 2016).

Columns and labels:
[1] = test system: Chlorella sp. ATCC 7516; experiment: Algal efficacy testing of dry paint films (modified ASTM 5589, 6-well plates); assay type: cell-based; conditions: 3 weeks; for % inhibition: at the total conc, vs blank; for Total conc: total biocide conc in paint reported for pass level ≧75% inhibition (max tested 5000 ppm if no pass)
Procedure: (§1) KATHON™ 893T (100% OIT) and ROCIMA™ 200 (20% DCOIT) were post added to a white, acrylic/silicone based outdoor paint free of biocides to give a total active ingredient concentration of 10000 and 1000 ppm respectively. These paints were then diluted with an antimicrobial free acrylic/silicone based paint and mixed to prepare targeted concentrations of antimicrobial compounds for the testing. The total biocides concentrations tested were 125, 250, 500, 1000, 2000 and 5000 ppm. After biocides addition or dilution, the paints were mixed 90 seconds with the horse power shaker (AXEL 75M3372/Agitateur SO-10MI) until uniformity was achieved. Paints containing different antimicrobial compounds at the same levels were mixed together in order to obtain the desired ratio of antimicrobial compounds. After one day, the paints were applied to Schleicher & Schuell filter paper at 280 μm wet film thickness and dried for 3 days at room temperature avoiding direct exposure to sunlight. Square discs (1.6 cm×1.6 cm) were cut out from each panel and were used as the substrate for algal efficacy tests. This sample size allowed for an agar border when the sample disc was placed into the well of the test plate.
(§2) Algal efficacy was tested according to modified ASTM 5589 which is a standard accelerated test method for determining resistance of various coatings (including paints) to algal defacement. To accommodate for high-throughput screening, this method was scaled down from petri dishes to 6-well plates. Bold Modified Basal Freshwater Nutrient Solution was used as growth medium. A single coated filter paper coupon was placed with a pair of sterile forceps at the center of the agar plug (on top) with the painted surface facing upwards. Algal inoculums were prepared by mixing equal concentrations (1×10^6 cfu/ml) and equal volumes of exponentially growing algae cultures.
(§3) Each well that contains a tested coupon was inoculated with 1750 μl of algal suspensions (1×10^6 cfu/ml) making sure that the whole surface (paint film as well as the agar surrounding it) was evenly covered. The plates were incubated at room temp (21° C.-25° C.) with cyclic exposure to light and dark phases, for a period of three weeks.
(§4) At the end of the three week incubation period, the samples were scored for percent inhibition regarding visible algal growth compared to the blank sample (0% inhibition).
(§5) The SI is calculated based on F. C.
(§6) SI value of <1 in the formula indicates a synergism of the blended biocides exists.
(§7) The minimal targeted inhibition was set at 75%, meaning a coupon with at least 75% algal growth inhibition was considered as a pass.

[2] = test system: Stichococcus bacillaris SAG 379-1a / CCAP 379/1a; experiment: as above; assay type: cell-based; conditions: 3 weeks; for % inhibition: at the total conc, vs blank; for Total conc: total biocide conc in paint reported for pass level ≧75% inhibition (max tested 5000 ppm if no pass)
Procedure: as §1, §2, §3, §4, §5, §6, §7

Compound	% inhibition ([1]; DCOIT/Lenacil table)	Total conc ([1]; DCOIT/Lenacil table)	% inhibition ([2]; DCOIT/Lenacil table)	Total conc ([2]; DCOIT/Lenacil table)	% inhibition ([1]; OIT/Lenacil table)	Total conc ([1]; OIT/Lenacil table)	% inhibition ([2]; OIT/Lenacil table)	Total conc ([2]; OIT/Lenacil table)
CCCCCCCCn1sc(Cl)c(Cl)c1=O [DCOIT, 4,5-dichloro-2-n-octyl-4-isothiazolin-3-one]	85%	1000 ppm	95%	1000 ppm	–	–	–	–
CCCCCCCCn1sccc1=O [OIT, 2-n-octyl-4-isothiazolin-3-one]	–	–	–	–	95%	1000 ppm	90%	500 ppm
O=c1[nH]c2c(c(=O)n1C1CCCCC1)CCC2 [Lenacil, 3-cyclohexyl-1,5,6,7-tetrahydrocyclopentapyrimidine-2,4(3H)-dione]	30%	5000 ppm	70%	5000 ppm	45%	5000 ppm	30%	5000 ppm
